For data set [1] the following is noted: antihistamines now in use; causes dryness of mouth, blurred vision and tachycardia; cited from earlier work.
Data set [2] has as its target T1, histamine response of longitudinal muscle isolated from the intact ileum of guinea-pigs (Cavia porcellus, UniProt P31389).
T1 construct: The longitudinal muscle was isolated from the intact ileum of guinea-pigs; from tissue; host or cells: longitudinal muscle of guinea-pig ileum (Hartley, male)
In words: In vitro antihistaminic activity (histamine concentration-response curves, Schild plot). Conditions: for Kb: guinea-pig ileum longitudinal muscle, one hour incubation with test compound, Schild plot, read-out: pA2 (converted); for antihistamine activity (in words): of the compounds of formula (I). The data set is classed as cell-based, guinea-pig (Hartley, male). As to the method: In vitro antihistaminic activity: The longitudinal muscle was isolated from the intact ileum of guinea-pigs (Hartley, male 250-400 g) and placed in an organ bath under 300 mg tension. After one hour of equilibration, cumulative concentration-response curves (Van Rossum, J. M., Arch. Int. Pharmacodyn. Ther. 143, 299-330, 1963) to histamine were obtained. Following washing, the tissues were incubated for one hour with the test compound and then a second histamine concentration-response curve was run. Shifts to the right of the agonist concentration-response curve produced by the antagonists were used to construct Schild plots (Arunlakshana, O. and Schild, H. O., Br. J. Pharmacol: 14, 48-58, 1959). Regression of Log (dr-1) on Log [B], where dr is an equiactive response in the presence and absence of antagonist and [B] is the molar concentration of antagonist, allowed an estimate of pA2, i.e. the negative log of the concentration of antagonist which shifts the control histamine concentration-response curve 2X to the right.

The conditions of data set [3]: human, in vivo; cited from earlier work.

Data on five molecules can be found in patent US4590199A, “Antihistaminic 2-(amino ethylamino) pyridines” (priority 1983, dated 1986).

T1 sequence (P31389 whole entry): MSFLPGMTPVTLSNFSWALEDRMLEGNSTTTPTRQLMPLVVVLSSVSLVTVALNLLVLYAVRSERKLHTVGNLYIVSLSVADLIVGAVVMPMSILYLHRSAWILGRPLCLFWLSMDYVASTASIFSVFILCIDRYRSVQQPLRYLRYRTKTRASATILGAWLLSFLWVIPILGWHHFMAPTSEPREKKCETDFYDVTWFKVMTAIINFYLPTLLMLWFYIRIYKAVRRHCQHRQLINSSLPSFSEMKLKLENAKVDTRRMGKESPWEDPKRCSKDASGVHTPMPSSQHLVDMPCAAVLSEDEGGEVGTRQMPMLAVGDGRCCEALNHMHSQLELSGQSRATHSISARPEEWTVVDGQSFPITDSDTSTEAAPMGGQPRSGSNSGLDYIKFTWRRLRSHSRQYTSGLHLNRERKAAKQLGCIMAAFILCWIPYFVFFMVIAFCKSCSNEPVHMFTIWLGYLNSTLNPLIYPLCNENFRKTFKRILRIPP

As to `Cc1ccc(/C(=C\CN2CCCC2)c2ccccn2)cc1` [triprolidine], the anticholinergic activity entry in data set [1] is recorded as “varying degrees of anticholinergic activity”. `COc1ccc(CN(CCN(C)C)c2ccc(C(=O)O)cn2)cc1` [Compound B, 6-(N-(2-dimethylaminoethyl)-4-methoxybenzylamino) nicotinic acid]: in data set [2], the Kb was 1260 nM and the “antihistamine activity (in words)” value is on record as “particularly active”.

Take `CC(CN1c2ccccc2Sc2ccccc21)N(C)C` (centres unmarked) [promethazine]: in data set [1], the anticholinergic activity result is listed as “varying degrees of anticholinergic activity”. In the case of `COc1ccc(CN(CCN(C)C)c2ccccn2)cc1` [Pyrilamine, N,N-dimethyl-N'-(4-methoxyphenylmethyl)-N'-2-pyridyl-1,2-ethanediamine], the sedation and drowsiness result in data set [3] was “produces sedation and drowsiness in varying degrees in most patients”. Besides, in data set [1], the anticholinergic activity result is “varying degrees of anticholinergic activity”. On to `COc1ccc(CN(CCN(C)C)c2cccc(/C=C/C(=O)O)n2)cc1` [Compound A, (E)-3-(6-(N-(2-dimethylaminoethyl)-4-methoxybenzylamino)-2-pyridyl)acrylicacid], for which, in data set [2], the Kb is 251 nM and the “antihistamine activity (in words)” value is listed as “particularly active”.
